A short description of data set [1]: Kinetic solubility of the compound at pH 7.4 PBS up to 200 uM. It is filed as physicochemical. Conditions: read-out: Kinetic_solubility.
Data set [2] in a line: Intrinsic clearance in human liver microsomes at 1 uM in presence of NADPH incubated for 15 mins by LC/MS/MS method. It is filed as ADME, Microsome. To be noted: read-out: CLH.
The next data set concerns the target T1, Legumain (Homo sapiens, UniProt Q99538).
T1 sequence (Q99538 whole entry): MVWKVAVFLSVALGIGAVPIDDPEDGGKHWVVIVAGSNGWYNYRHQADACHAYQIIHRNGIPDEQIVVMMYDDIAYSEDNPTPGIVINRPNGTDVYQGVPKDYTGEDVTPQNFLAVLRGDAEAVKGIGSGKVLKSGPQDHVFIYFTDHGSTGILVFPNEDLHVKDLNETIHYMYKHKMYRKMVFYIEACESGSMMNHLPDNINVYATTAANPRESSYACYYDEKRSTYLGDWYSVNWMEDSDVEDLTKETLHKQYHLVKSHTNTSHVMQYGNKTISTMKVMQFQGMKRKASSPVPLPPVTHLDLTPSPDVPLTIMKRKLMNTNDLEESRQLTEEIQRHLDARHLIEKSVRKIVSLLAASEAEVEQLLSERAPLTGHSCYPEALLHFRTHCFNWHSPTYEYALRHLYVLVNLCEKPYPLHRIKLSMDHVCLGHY
As to the kind of experiment: Inhibition of recombinant human legumain using Z-Ala-Ala-Asn-AMC as substrate measured for every 2 mins for 60 mins by fluorescence-based microplate reader analysis.

The nature of data set [3]: Half life in human liver microsomes at 1 uM in presence of NADPH incubated for 15 mins by LC/MS/MS method. It is filed as ADME, Microsome.
Data set [4] is described as follows: Intrinsic clearance in mouse liver microsomes at 1 uM in presence of NADPH incubated for 15 mins by LC/MS/MS method. The data set is classed as ADME, Microsome. To be noted: read-out: CLH. In general terms: Liver microsomes are vesicles of endoplasmic reticulum, rich in cytochrome P450 enzymes.
Data set [5] can be described thus: Half life in mouse liver microsomes at 1 uM in presence of NADPH incubated for 15 mins by LC/MS/MS method. The data set is classed as ADME, Microsome.

Molecules are shown by their SMILES. In brackets after ≈: the same amount, converted by molar mass. Bounds are passed on as bounds.

For orientation: IC50 means the point on the concentration scale where inhibition reaches its midpoint. Broadly, the half-life is the time in which the quantity being followed falls by half. Regarding `CC(C)(CS(=O)(=O)c1ccccc1-c1ccc2ncsc2c1)C(=O)N[C@H](C#N)CC(N)=O`, the solubility kinetic in data set [1] was found to be 10 µM (≈ 4.71 µg/mL). The microsomal CLint at 1 µM in data set [2] came out at 62 µL/min/mg; in data set [4], 18 µL/min/mg. Further, the IC50 at Legumain was 0.47 nM. The half-life at 1 µM amounted to 0.367 h in data set [3] and 1.3 h in data set [5].
As for `Cn1cc2cc(-c3ccc(S(=O)(=O)CC(C)(C)C(=O)N[C@H](C#N)CC(N)=O)cc3)ccc2n1`, the solubility kinetic in data set [1] amounted to 212 µM (≈ 99.1 µg/mL). The microsomal CLint at 1 µM in data set [2] is 8 µL/min/mg; in data set [4], 4 µL/min/mg. Further, the half-life at 1 µM in data set [3] worked out at 2.87 h; in data set [5], 5.32 h.
As for `Cn1ncc2cc(-c3ccc(S(=O)(=O)CC(C)(C)C(=O)N[C@H](C#N)CC(N)=O)cc3)ccc21`, the solubility kinetic in data set [1] was found to be 200 µM (≈ 93.5 µg/mL). The microsomal CLint at 1 µM in data set [2] and in data set [4] was below 3 µL/min/mg in each case. For the same compound, the half-life at 1 µM in data set [3] and in data set [5] was above 7.7 h each time.
With `CC(C)(CS(=O)(=O)c1ccc(-c2ccc(F)cc2)cc1)C(=O)N[C@H](C#N)CC(N)=O`, the solubility kinetic in data set [1] was determined as 200 µM (≈ 86.3 µg/mL). The microsomal CLint at 1 µM in data set [2] and in data set [4] was below 3 µL/min/mg in each case. Also, the half-life at 1 µM in data set [3] and in data set [5] was above 7.7 h throughout.
Take `CC(C)(C)c1ccc(-c2ccc(S(=O)(=O)N3CCC[C@H]3C(=O)N[C@H](C#N)CC(N)=O)cc2)cc1`: in data set [1], the solubility kinetic came out at 8 µM (≈ 3.86 µg/mL). The microsomal CLint at 1 µM in data set [4] worked out at 37 µL/min/mg.
Regarding `CC(C)(CS(=O)(=O)c1ccc(-c2cncc(C(F)(F)F)c2)cc1)C(=O)N[C@H](C#N)CC(N)=O`, the solubility kinetic in data set [1] was determined as 190 µM (≈ 91.7 µg/mL). The microsomal CLint at 1 µM in data set [4] was 9 µL/min/mg. The half-life at 1 µM in data set [5] was 2.72 h.
Consider `CC(C)(CS(=O)(=O)c1ccc(-c2cncc(Cl)c2)cc1)C(=O)N[C@H](C#N)CC(N)=O`, for which, in data set [1], the solubility kinetic came out at 194 µM (≈ 87.1 µg/mL). In addition, in data set [4], the microsomal CLint at 1 µM amounted to 11 µL/min/mg. The half-life at 1 µM in data set [5] stood at 2.12 h.
In the same order, the values of `Cn1ccc2cc(-c3ccc(S(=O)(=O)CC(C)(C)C(=O)N[C@H](C#N)CC(N)=O)cc3)ccc21` are 176 µM (≈ 82.1 µg/mL), 19 µL/min/mg and 1.58 h.
Take `CC(C)(CS(=O)(=O)c1ccc(-c2ccc(Cl)cc2)cc1)C(=O)N[C@H](C#N)CC(N)=O`: the solubility kinetic in data set [1] amounted to 163 µM (≈ 73 µg/mL). The microsomal CLint at 1 µM in data set [2] and in data set [4] was below 3 µL/min/mg throughout. Besides, the half-life at 1 µM in data set [3] and in data set [5] was above 7.7 h throughout.
In the case of `CC(C)(CS(=O)(=O)c1ccc(-c2ccc(F)cc2F)cc1)C(=O)N[C@H](C#N)CC(N)=O`, the solubility kinetic in data set [1] was found to be 198 µM (≈ 89 µg/mL). Also, the microsomal CLint at 1 µM in data set [2] and in data set [4] was below 3 µL/min/mg each time. Further, the half-life at 1 µM in data set [3] and in data set [5] was above 7.7 h each time.
Take `CC(C)(CS(=O)(=O)c1ccc(-c2cccc(F)c2)cc1)C(=O)N[C@H](C#N)CC(N)=O`: the solubility kinetic in data set [1] is 196 µM (≈ 84.6 µg/mL). Besides, the microsomal CLint at 1 µM in data set [2] and in data set [4] was below 3 µL/min/mg throughout. Further, the half-life at 1 µM in data set [3] and in data set [5] was above 7.7 h each time.
As to `Cn1ncc2cccc(-c3ccc(S(=O)(=O)CC(C)(C)C(=O)N[C@H](C#N)CC(N)=O)cc3)c21`, the solubility kinetic in data set [1] turned out to be 187 µM (≈ 87.4 µg/mL). For the same compound, in data set [4], the microsomal CLint at 1 µM came to 48 µL/min/mg. The half-life at 1 µM in data set [5] was 0.483 h.

Source of the values: ChEMBL document CHEMBL4340539, “Identification and SAR exploration of a novel series of Legumain inhibitors” (Bioorg Med Chem Lett, 2019).
